Test results as given in patent US5061794A, “Cephalosporin derivatives, and antibacterial agents” (priority 1986, dated 1991).
Values after ≈ are worked out from the molar mass of the structure shown. Like-named read-outs stand apart in the source and are kept apart here.

Tests used:
E. coli CSH(RE45) = assay: microbe, parasite or virus in culture; type: cell-based; settings: Escherichia coli, 16 h, read-out: Minimum Inhibitory Concentration (MIC), *E. coli CSH(RE45), lactamase-producing strain; 10^6 CFU/ml
Description: (§1) The in vitro antibacterial activities of the compounds of the present invention against various microorganisms, were measured by the following agar plate dilution method. One platinum loopfull of each test microorganism incubated overnight in Mueller Hinton broth, was inoculated to Mueller Hinton agar (inoculum size: 10^6 CFU/ml). Such culture media containing various antibiotics in various concentrations were prepared. After incubation at 37° C. for 16 hours, the minimum inhibitory concentrations (MIC: μg/ml) were measured.

E. coli CSH2 (RK1) = assay: microbe, parasite or virus in culture; type: cell-based; settings: Escherichia coli, 16 h, read-out: Minimum Inhibitory Concentration (MIC), *E. coli CSH2 (RK1), lactamase-producing strain; 10^6 CFU/ml
Description: as §1

E. cloacae 963 = assay: in vitro antibacterial activity, agar plate dilution method (MIC); type: cell-based; settings: 10^6 CFU/ml
Description: as §1

E. cloacae Nek 39 = assay: as above; type: cell-based; settings: Enterobacter cloacae, NEK39, 16 h, 10^6 CFU/ml
Description: as §1

E. coli GN5482 = assay: as above; type: cell-based; settings: Escherichia coli
Description: as §1

E. coli NIHJ JC2 = assay: as above; type: cell-based; settings: Escherichia coli
Description: as §1

K. oxytoca GN10650 = assay: as above; type: cell-based; settings: Klebsiella oxytoca, 10^6 CFU/ml
Description: as §1

K. pneumoniae No. 42 = assay: as above; type: cell-based; settings: Klebsiella pneumoniae, 10^6 CFU/ml
Description: as §1

K. pneumoniae PCI-602 = assay: as above; type: cell-based; settings: Klebsiella pneumoniae, PCI602, 16 h, 10^6 CFU/ml
Description: as §1

M. morganii GN5407 = assay: as above; type: cell-based; settings: Morganella morganii, 10^6 CFU/ml
Description: as §1

P. vulgaris HX-19 = assay: as above; type: cell-based; settings: Proteus vulgaris, HX19, 16 h, P. vulgaris HX-19; 10^6 CFU/ml; read-out: Minimum Inhibitory Concentration (MIC)
Description: as §1

P. vulgaris No. 33 = assay: as above; type: cell-based; settings: Proteus vulgaris, NO.33, 16 h, read-out: Minimum Inhibitory Concentration (MIC), *P. vulgaris No. 33, lactamase-producing strain; 10^6 CFU/ml
Description: as §1

S. aureus 209P NIHJ-JC1 = assay: as above; type: cell-based; settings: Staphylococcus aureus, 16 h, 10^6 CFU/ml, 37° C., 16 hours
Description: as §1

S. marcescens IAM 1184 = assay: as above; type: cell-based; settings: Serratia marcescens, IAM1184, 16 h, read-out: Minimum Inhibitory Concentration (MIC)
Description: as §1

S. marcescens No. 16-2 = assay: as above; type: cell-based; settings: Serratia marcescens, NO.162, 16 h
Description: as §1

Ps. aeruginosa AK 109 = assay: as above; type: cell-based, Pseudomonas aeruginosa; settings: Pseudomonas aeruginosa, AK109, 16 h
Description: as §1

Ps. aeruginosa AKR17 = assay: as above; type: cell-based, Pseudomonas aeruginosa; settings: Pseudomonas aeruginosa, 16 h; Ps. aeruginosa AKR17; 10^6 CFU/ml; read-out: Minimum Inhibitory Concentration (MIC)
Description: as §1

Ps. aeruginosa IF03445 = assay: as above; type: cell-based, Pseudomonas aeruginosa; settings: Pseudomonas aeruginosa, 10^6 CFU/ml
Description: as §1

Ps. cepacia 23 = assay: as above; type: cell-based, Pseudomonas cepacia; settings: Burkholderia cepacia, 16 h; Ps. cepacia 23; 10^6 CFU/ml; read-out: Minimum Inhibitory Concentration (MIC)
Description: as §1

A. calcoaceticus No. 4 = assay: as above; type: cell-based, Acinetobacter calcoaceticus; settings: Acinetobacter calcoaceticus, NO.4, 16 h, 10^6 CFU/ml
Description: as §1

[1] = Enterobacter cloacae, 963, 16 h, read-out: Minimum Inhibitory Concentration (MIC), E. cloacae 963
[2] = read-out: Minimum Inhibitory Concentration (MIC), *E. cloacae Nek 39, lactamase-producing strain
[3] = GN5482, 16 h, read-out: Minimum Inhibitory Concentration (MIC), *E. coli GN5482, lactamase-producing strain, 10^6 CFU/ml
[4] = NIHJJC2, 16 h, read-out: Minimum Inhibitory Concentration (MIC), E. coli NIHJ JC2, 10^6 CFU/ml, 37° C.
[5] = 16 h, *K. oxytoca GN10650, lactamase-producing strain, read-out: Minimum Inhibitory Concentration (MIC)
[6] = NO.42, 16 h, read-out: Minimum Inhibitory Concentration (MIC), *K. pneumoniae No. 42, lactamase-producing strain
[7] = read-out: Minimum Inhibitory Concentration (MIC), K. pneumoniae PCI-602
[8] = GN5407, 16 h, read-out: Minimum Inhibitory Concentration (MIC), *M. morganii GN5407, lactamase-producing strain
[9] = read-out: Minimum Inhibitory Concentration (MIC), S. aureus 209P NIHJ-JC1
[10] = S. marcescens IAM 1184, 10^6 CFU/ml
[11] = IF03445, 16 h, read-out: Minimum Inhibitory Concentration (MIC), Ps. aeruginosa IF03445
[12] = A. calcoaceticus No. 4, read-out: Minimum Inhibitory Concentration (MIC)
[13] = GN10650, 16 h, read-out: Minimum Inhibitory Concentration (MIC), *K. oxytoca GN10650, lactamase-producing strain
[14] = read-out: Minimum Inhibitory Concentration (MIC)
[15] = Enterobacter cloacae, 16 h, E. cloacae 963, read-out: Minimum Inhibitory Concentration (MIC)
[16] = *E. cloacae Nek 39, lactamase-producing strain, read-out: Minimum Inhibitory Concentration (MIC)
[17] = S. aureus 209P NIHJ-JC1, read-out: Minimum Inhibitory Concentration (MIC)
[18] = *S. marcescens No. 16-2, lactamase-producing strain, 10^6 CFU/ml, read-out: Minimum Inhibitory Concentration (MIC)
[19] = Ps. aeruginosa AK 109, 10^6 CFU/ml, read-out: Minimum Inhibitory Concentration (MIC)
[20] = 16 h, Ps. aeruginosa IF03445, read-out: Minimum Inhibitory Concentration (MIC)

Row | SMILES | MIC (E. coli CSH(RE45)) | MIC (E. coli CSH2 (RK1)) | MIC (E. cloacae 963; [1]) | MIC (E. cloacae Nek 39; [2]) | MIC (E. coli GN5482; [3]) | MIC (E. coli NIHJ JC2; [4]) | MIC (K. oxytoca GN10650; [5]) | MIC (K. pneumoniae No. 42; [6]) | MIC (K. pneumoniae PCI-602; [7]) | MIC (M. morganii GN5407; [8]) | MIC (P. vulgaris HX-19) | MIC (P. vulgaris No. 33) | MIC (S. aureus 209P NIHJ-JC1; [9]) | MIC (S. marcescens IAM 1184; [10]) | MIC (Ps. aeruginosa AKR17) | MIC (Ps. aeruginosa IF03445; [11]) | MIC (Ps. cepacia 23) | MIC (A. calcoaceticus No. 4; [12]) | MIC (S. marcescens IAM 1184) | MIC (Ps. aeruginosa IF03445; [20]) | further results
1 | Nc1nc(/C(=N/Oc2ccccc2)C(=O)N[C@@H]2C(=O)N3C(C(=O)O)=C(CSc4nnc(-c5ccc(O)c(O)c5)o4)CS[C@H]23)cs1 [Ex. 22, sodium 7β-[2-(2-aminothiazol-4-yl)2phenoxyiminoacetamido]-3-[5-(3,4-dihydroxyphenyl)-1,3,4-oxadiazol-2-yl]thiomethyl-3-cephem-4-carboxylate] | < 0.006 µg/mL | 0.0125 µg/mL | 0.025 µg/mL | 0.05 µg/mL | 0.78 µg/mL | 0.39 µg/mL | 100 µg/mL | 0.0125 µg/mL | < 0.006 µg/mL | 0.0125 µg/mL | < 0.006 µg/mL | 0.025 µg/mL | 0.78 µg/mL | 0.05 µg/mL | > 100 µg/mL | 1.56 µg/mL | 0.025 µg/mL | 0.2 µg/mL |  |  | MIC (S. marcescens No. 16-2; read-out: Minimum Inhibitory Concentration (MIC), *S. marcescens No. 16-2, lactamase-producing strain, 10^6 CFU/ml): 0.78 µg/mL; MIC (Ps. aeruginosa AK 109; read-out: Minimum Inhibitory Concentration (MIC), Ps. aeruginosa AK 109, 10^6 CFU/ml): 1.56 µg/mL
2 | CON=C(C(=O)NC1C(=O)N2C(C(=O)O)=C(CSc3nc(-c4ccc(O)c(O)c4)cs3)CSC12)c1csc(N)n1 (stereo not drawn) [compound 39, sodium 7β-[2-(2-aminothiazol-4-yl)-2-methoxviminoacetamido]-3-[4-(3,4-dihydroxyphenvl)-thiazol-2-yl]thiomethyl-3-cephem-4-carboxylate] | 0.1 µg/mL | 0.0125 µg/mL | 0.025 µg/mL | 0.39 µg/mL | 0.78 µg/mL | 0.1 µg/mL |  | 0.2 µg/mL | < 0.006 µg/mL | 0.05 µg/mL | < 0.006 µg/mL | 0.05 µg/mL | 1.56 µg/mL | 0.05 µg/mL | > 100 µg/mL | 1.56 µg/mL | 0.2 µg/mL |  |  |  | MIC (K. oxytoca GN10650; [13]): 1.56 µg/mL; MIC (S. marcescens No. 16-2; [14]): 3.12 µg/mL; MIC (Ps. aeruginosa AK 109; [14]): 3.12 µg/mL; MIC (A. calcoaceticus No. 4; read-out: Minimum Inhibitory Concentration (MIC), A. calcoaceticus No. 4): 0.39 µg/mL
3 | CO/N=C(\C(=O)N[C@@H]1C(=O)N2C(C(=O)O)=C(COC(C)=O)CS[C@H]12)c1csc(N)n1 [cefotaxime, reference compound] |  | 0.0125 µg/mL (≈ 0.0274 µM) |  |  |  |  |  |  |  |  | < 0.006 µg/mL |  |  |  |  |  | 6.25 µg/mL (≈ 13.7 µM) |  | 0.0125 µg/mL (≈ 0.0274 µM) | 2.5 µg/mL (≈ 5.49 µM) | MIC (E. cloacae 963; [15]): 0.05 µg/mL (≈ 0.11 µM); MIC (E. cloacae Nek 39; [16]): 1.56 µg/mL (≈ 3.43 µM); MIC (K. pneumoniae PCI-602; K. pneumoniae PCI-602, read-out: Minimum Inhibitory Concentration (MIC)): < 0.006 µg/mL; MIC (M. morganii GN5407; 16 h, *M. morganii GN5407, lactamase-producing strain, read-out: Minimum Inhibitory Concentration (MIC)): 0.05 µg/mL (≈ 0.11 µM); MIC (S. aureus 209P NIHJ-JC1; [17]): 1.56 µg/mL (≈ 3.43 µM); MIC (S. marcescens No. 16-2; [18]): 6.25 µg/mL (≈ 13.7 µM); MIC (Ps. aeruginosa AK 109; [19]): 12.5 µg/mL (≈ 27.4 µM)
4 | CC(C)(O/N=C(\C(=O)N[C@@H]1C(=O)N2C(C(=O)O)=C(CSc3nnc(-c4ccccc4)o3)CS[C@H]12)c1csc(N)n1)C(=O)O [compound 3, disodium 7β-[2-(2-aminothiazol-4-yl)-2-(1-carboxylate-1-methylethoxyimino)acetamido]3-(5-phenyl-1,3,4-oxadiazol-2-yl) thiomethyl-3-cephem-4-carboxylate, reference compound] | 1.56 µg/mL | 1.56 µg/mL | 6.25 µg/mL |  |  | 3.12 µg/mL |  | 3.12 µg/mL | 0.1 µg/mL | 1.56 µg/mL | < 0.006 µg/mL | 0.39 µg/mL | 6.25 µg/mL |  | > 100 µg/mL |  |  | 100 µg/mL | 1.56 µg/mL | 50 µg/mL | MIC (E. cloacae Nek 39; [16]): 25 µg/mL; MIC (E. coli GN5482; GN5482, 16 h, read-out: Minimum Inhibitory Concentration (MIC)): 3.12 µg/mL; MIC (K. oxytoca GN10650; [13]): 3.12 µg/mL; MIC (S. marcescens No. 16-2; [18]): 25 µg/mL; MIC (Ps. aeruginosa AK 109; [19]): 50 µg/mL
5 | CC(C)(O/N=C(\C(=O)N[C@@H]1C(=O)N2C(C(=O)O)=C(CSc3nnc(-c4ccc(O)cc4)o3)CS[C@H]12)c1csc(N)n1)C(=O)O [compound 4, disodium 7β-[2-(2-aminothiazol-4-yl)-2-(1-carboxylate-1-methylethoxyimino)acetamido]-3-[5-(4-hydroxyphenyl)-1,3,4-oxadiazol-2-yl]thiomethyl-3-cephem-4-carboxylate, reference compound] | 0.78 µg/mL | 0.78 µg/mL |  | 12.5 µg/mL |  |  | 1.56 µg/mL |  | 0.1 µg/mL | 0.78 µg/mL | 0.1 µg/mL | 0.2 µg/mL |  |  | > 100 µg/mL |  |  | 25 µg/mL | 0.78 µg/mL | 25 µg/mL | MIC (E. cloacae 963; [15]): 3.12 µg/mL; MIC (E. coli GN5482; 16 h, *E. coli GN5482, lactamase-producing strain, 10^6 CFU/ml, read-out: Minimum Inhibitory Concentration (MIC)): 1.56 µg/mL; MIC (E. coli NIHJ JC2; NIHJJC2, E. coli NIHJ JC2, 10^6 CFU/ml, 37° C., 16 hours, read-out: Minimum Inhibitory Concentration (MIC)): 3.12 µg/mL; MIC (K. pneumoniae No. 42; 16 h, *K. pneumoniae No. 42, lactamase-producing strain, read-out: Minimum Inhibitory Concentration (MIC)): 1.56 µg/mL; MIC (S. aureus 209P NIHJ-JC1; [17]): 6.25 µg/mL; MIC (S. marcescens No. 16-2; [14]): 12.5 µg/mL; MIC (Ps. aeruginosa AK 109; [14]): 12.5 µg/mL
